The text below walks through data of ChEMBL document CHEMBL5154705, “Discovery and mechanistic study of thiazole-4-acylsulfonamide derivatives as potent and orally active ChemR23 inhibitors with a long-acting effect in cynomolgus monkeys” (Bioorg Med Chem, 2022).

As a reminder, the Cmax is the maximum level reached in the sampled fluid or tissue. What is called AUC(0-inf) is total exposure, with the tail of the curve extrapolated. As a reminder, the Tmax is the time from dosing to the highest level. In general, half-life refers to the time needed for the level to fall by half in the phase considered. A word on the MRT: it is a mean duration of stay, worked out from the concentration-time curve. One may read the IC80 as the concentration needed for an effect of 80%. Broadly, the IC50 is the concentration that gives 50% inhibition. The EC50 is the concentration that produces a half-maximal response.

Series [1] can be described thus: Drug concentration in cynomolgus monkey plasma at 1 mg/kg, po after 8 hrs. It counts as ADME, organism-based, Macaca fascicularis.
Series [2] can be described thus: Cmax in cynomolgus monkey at 1 mg/kg, po. Type of series: ADME, organism-based, Macaca fascicularis. Also noted: dose 1 mg/kg, route po. Conditions: in vivo.
A short description of series [3]: AUC(0 to infinity) in cynomolgus monkey at 1 mg/kg, po. Type of series: ADME, organism-based, Macaca fascicularis. Conditions: in vivo. Set-up: time infinity, dose 1 mg/kg, route po.
Series [4] in a line: Tmax in cynomolgus monkey at 1 mg/kg, po. Type of series: ADME, organism-based, Macaca fascicularis. The settings on record: in vivo.
The nature of series [5]: Half life in cynomolgus monkey at 1 mg/kg, po. It counts as ADME, organism-based, Macaca fascicularis. Conditions: in vivo.
A short description of series [6]: MRT in cynomolgus monkey at 1 mg/kg, po. The settings on record: in vivo. It counts as ADME, organism-based, Macaca fascicularis.
Series [7] has as its target T1, Chemerin-like receptor 1 (Homo sapiens) (UniProt Q99788).
T1 sequence (whole entry): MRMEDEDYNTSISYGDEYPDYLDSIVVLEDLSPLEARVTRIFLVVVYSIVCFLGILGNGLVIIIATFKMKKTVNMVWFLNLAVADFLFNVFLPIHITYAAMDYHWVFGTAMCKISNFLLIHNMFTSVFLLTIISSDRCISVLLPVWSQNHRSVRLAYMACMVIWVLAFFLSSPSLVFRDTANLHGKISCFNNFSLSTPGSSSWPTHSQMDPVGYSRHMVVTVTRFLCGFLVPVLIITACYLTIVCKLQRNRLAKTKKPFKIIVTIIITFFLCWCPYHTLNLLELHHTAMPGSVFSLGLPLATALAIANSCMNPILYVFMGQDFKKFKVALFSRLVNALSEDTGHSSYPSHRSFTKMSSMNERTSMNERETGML
Conditions: CAL1.

Series [8] can be described thus: Cmax in cynomolgus monkey at 0.3 to 1 mg/kg, po. It counts as ADME, organism-based, Macaca fascicularis. Set-up: route po. Conditions: in vivo, dose 0.3-1 mg/kg.
Series [9] is described as follows: Tmax in cynomolgus monkey at 0.3 to 1 mg/kg, po. Conditions: in vivo, dose 0.3-1 mg/kg. It counts as ADME, organism-based, Macaca fascicularis.
The nature of series [10]: Half life in cynomolgus monkey at 0.3 to 1 mg/kg, po. Type of series: ADME, organism-based, Macaca fascicularis. Conditions: in vivo, dose 0.3-1 mg/kg.
A short description of series [11]: AUC(0 to infinity) in cynomolgus monkey at 0.3 to 1 mg/kg, po. It counts as ADME, organism-based, Macaca fascicularis. Set-up: route po. Conditions: in vivo, dose 0.3-1 mg/kg.
The nature of series [12]: MRT in cynomolgus monkey at 0.3 to 1 mg/kg, po. Type of series: ADME, organism-based, Macaca fascicularis. The settings on record: in vivo, dose 0.3-1 mg/kg.
Series [13] can be described thus: Cmax in cynomolgus monkey at 0.3 mg/kg, po. Set-up: dose 0.3 mg/kg, route po. Conditions: in vivo. It counts as ADME, organism-based, Macaca fascicularis.
Series [14] can be described thus: Drug concentration in cynomolgus monkey plasma at 0.3 mg/kg, po after 8 hrs. Type of series: ADME, organism-based, Macaca fascicularis.
Series [15] is described as follows: Tmax in cynomolgus monkey at 0.3 mg/kg, po. It counts as ADME, organism-based, Macaca fascicularis. The settings on record: in vivo.
Series [16] in a line: Half life in cynomolgus monkey at 0.3 mg/kg, po. Conditions: in vivo. Type of series: ADME, organism-based, Macaca fascicularis.
Series [17] in a line: AUC(0 to infinity) in cynomolgus monkey at 0.3 mg/kg, po. Set-up: time infinity, dose 0.3 mg/kg, route po. It counts as ADME, organism-based, Macaca fascicularis. Conditions: in vivo.
Series [18] can be described thus: MRT in cynomolgus monkey at 0.3 mg/kg, po. It counts as ADME, organism-based, Macaca fascicularis. Conditions: in vivo.
The nature of series [19]: Drug concentration in plasma of cynomolgus monkey at 30 mg/kg, po after 4 hrs. Type of series: ADME, organism-based, Macaca fascicularis.
The nature of series [20]: Drug concentration in plasma of cynomolgus monkey at 30 mg/kg, po after 6 hrs. Type of series: ADME, organism-based, Macaca fascicularis.
A short description of series [21]: Drug concentration in plasma of cynomolgus monkey at 30 mg/kg, po after 8 hrs. Type of series: ADME, organism-based, Macaca fascicularis.
In series [22] the target is T1, Chemerin-like receptor 1 (Homo sapiens). The experiment in a line: Binding affinity to ChemR23 (unknown origin) expressed in HEK293T cells at 40 to 1000 nM by flow cytometric analysis. Type of series: cell-based. Conditions: dose 40-1000 nM, DDE = dose-dependent effect. A general note: Flow cytometry measures light scatter and fluorescence of single cells or particles in a stream.

Series [23] has as its target T2, Chemerin-like receptor 1 (Homo sapiens, UniProt Q99788).
T2 sequence (Q99788 whole entry): T1 sequence (whole entry)
Briefly: Inhibition of human ChemR23 expressed in CAL-1 cells assessed as reduction in chemerin-induced calcium signaling. It counts as functional, cell-based, CAL1.

Series [24] deals with T2, Chemerin-like receptor 1. Briefly: Inhibition of human ChemR23 expressed in CAL-1 cells assessed as receptor internalization. It counts as functional, cell-based, CAL1.

In series [1], `CONC(=O)c1ccc(C)cc1-c1ccc([C@@H](C)N(CC2CC2)c2nc(C(=O)NS(=O)(=O)C3CC3)c(C3CC3)s2)cc1` registered a concentration at 8 h of 1010 ng/mL. Further, the concentration in series [2] peaked (Cmax) at 3480 ng/mL. The compound also came in with an AUC(0-inf) in series [3] of 24000 ng·h/mL. The time of peak concentration (Tmax) in [4] was 3.3 h. In addition, the half-life in series [5] is 2.9 h. This compound had a mean residence time MRT in series [6] of 5.9 h. For the same compound, the 80% effect level in series [7] (IC80) was put at 38 nM.

For `Cc1ccc(-c2nc(=O)o[nH]2)c(-c2ccc([C@@H](C)N(CC3CC3)c3nc(C(=O)NS(=O)(=O)C4CC4)c(C4CC4)s3)cc2)c1`, the concentration at 8 h in series [1] came out at 2580 ng/mL; in series [14] it was 403 ng/mL; in [21], 177 µM. Further, the peak concentration (Cmax) stood at 6960 ng/mL in series [8] and 1370 ng/mL in series [13]. Besides, the values for the Tmax in [9] and in series [15] were 2.7 h and 3.3 h, respectively. The results for the half-life in series [10] and in [16] were 3.1 h and 3.3 h, respectively. Moreover, the AUC(0-inf) in series [11] worked out at 53700 ng·h/mL; in [17], 10200 ng·h/mL. For the same compound, the mean residence time (MRT) was 6 h in series [12] and 5.4 h in [18]. The concentration at 4 h in series [19] worked out at 332 µM. Also, the concentration at 6 h in series [20] worked out at 233 µM.

As to `C[C@H](c1ccc(-c2cc(Cl)ccc2C(=O)NCCOCCOCCOCCOCCOCCOCCn2nnc3c2-c2ccccc2N(C(=O)CCNC(=O)CCOCCOCCOCCOCCNC(=O)c2ccc(C(=O)[O-])c(-c4c5ccc(=[N+](C)C)cc-5oc5cc(N(C)C)ccc45)c2)Cc2ccccc2-3)cc1)N(CC1CC1)c1nc(C(=O)NS(=O)(=O)C2CC2)c(C2CC2)s1`, the Activity result in series [22] was “Dde”.

On to `C[C@H](c1ccc(-c2cc(Cl)ccc2C(=O)NCCOCCOCCOCCOCCOCCOCCN=[N+]=[N-])cc1)N(CC1CC1)c1nc(C(=O)NS(=O)(=O)C2CC2)c(C2CC2)s1`, for which the 50% inhibitory concentration (IC50) in series [23] was 12 nM. Besides, in series [24], the EC50 was determined as 22 nM.

On to `C[C@H](c1ccc(-c2cc(Cl)ccc2C(=O)NCCOCCOCCOCCOCCOCCOCCOCCOCCOCCOCCOCCOCCOCCOCCOCCOCCOCCOCCOCOCCOCCOCCOCCN=[N+]=[N-])cc1)N(CC1CC1)c1nc(C(=O)NS(=O)(=O)C2CC2)c(C2CC2)s1`, for which the concentration for half-maximal inhibition (IC50) in [23] stood at 100 nM. The EC50 in [24] is 380 nM.
